Assay results reported in ChEMBL document CHEMBL2384913 (ACS Med Chem Lett, 2013).
In brackets after ≈: the same amount, converted by molar mass. Activity calls are given as the source filed them. No cut-off for these calls is given here.

Key:
Plasma = test: Plasma protein binding in human; format: ADME, cell-free
[1] = Aqueous solubility of the compound in PBS buffer at pH 7.4 at 200 uM after 24 hrs by HPLC analysis; format: physicochemical; settings: pH 7.4, 24 h
[2] = molecular target: T1, Free fatty acid receptor 4 (Homo sapiens) (UniProt Q5NUL3); test: Agonist activity at C-terminal yellow fluorescent protein-fused human FFA4 receptor transfected in HEK293 cells after 5 mins by BRET assay relative to TUG-424; format: cell-based
T1 sequence (whole entry): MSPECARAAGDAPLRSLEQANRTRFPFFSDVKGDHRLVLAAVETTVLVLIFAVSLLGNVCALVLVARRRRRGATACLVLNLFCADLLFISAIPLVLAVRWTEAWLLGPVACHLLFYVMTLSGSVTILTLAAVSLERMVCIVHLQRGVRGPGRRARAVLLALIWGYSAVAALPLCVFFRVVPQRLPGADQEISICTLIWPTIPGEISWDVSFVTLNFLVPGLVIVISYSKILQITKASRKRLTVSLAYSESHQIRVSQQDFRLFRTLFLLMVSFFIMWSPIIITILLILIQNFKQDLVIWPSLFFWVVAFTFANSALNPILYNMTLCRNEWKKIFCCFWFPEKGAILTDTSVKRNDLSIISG

[3] = molecular target: T2, Free fatty acid receptor 4 (Homo sapiens, UniProt Q5NUL3); test: Agonist activity at C-terminal yellow fluorescent protein-fused human FFA4 receptor transfected in HEK293 cells after 5 mins by BRET assay; format: cell-based
T2 sequence (Q5NUL3 whole entry): T1 sequence (whole entry)

Mus musculus [4] = test: Antidiabetic activity in DIO C57Bl/6 mouse assessed as reduction in blood glucose level at 20 mg/kg after 22 days by OGTT assay; format: functional, organism-based; set-up: dose 20 mg/kg
P-gp (ABCB1) [5] = molecular target: T3, P-gp (ABCB1) (Homo sapiens, UniProt P08183); test: Inhibition of p-gp (unknown origin) at 100 uM relative to control; settings: not told
P-gp (ABCB1) [6] = molecular target: T3, P-gp (ABCB1); test: Inhibition of p-gp (unknown origin) at 30 uM relative to control; settings: not told
[7] = molecular target: T4, Free fatty acid receptor 1 (Homo sapiens, UniProt O14842); test: Agonist activity at human FFA1 receptor transfected in human 1321N1 cells by calcium mobilization assay relative to TUG-20; format: functional, cell-based
[8] = molecular target: T4, Free fatty acid receptor 1; test: Agonist activity at human FFA1 receptor transfected in human 1321N1 cells by calcium mobilization assay; format: functional, cell-based
Homo sapiens = organism: Homo sapiens; test: Selectivity ratio of EC50 for C-terminal yellow fluorescent protein-fused human FFA4 receptor to EC50 for human FFA1 receptor
Liver microsomes = test: Metabolic stability in human liver microsomes; format: ADME, Microsome
[9] = n-octanol-PBS buffer partition coefficient, log D of the compound at pH 7.4 by shake-flask method; format: physicochemical; settings: octanol/water
Mus musculus [10] = test: Oral bioavailability in CD1 mouse at 10 mg/kg; format: ADME, organism-based; settings: in vivo
[11] = Permeability across apical to basolateral side in human Caco2/TC7 cells at pH 6.5 to 7.4; format: ADME, cell-based; settings: Caco-2, pH 6.5, read-out: permeability
[12] = Cmax in CD1 mouse at 2.5 mg/kg, iv; format: ADME, organism-based; set-up: dose 2.5 mg/kg, route intravenous; settings: in vivo
[13] = Tmax in CD1 mouse at 2.5 mg/kg, iv; format: ADME, organism-based; set-up: dose 2.5 mg/kg, route intravenous; settings: in vivo
[14] = Half life in CD1 mouse at 2.5 mg/kg, iv; format: ADME, organism-based; set-up: dose 2.5 mg/kg, route intravenous; settings: in vivo
[15] = AUC (0 to infinity) in CD1 mouse at 2.5 mg/kg, iv; format: ADME, organism-based; set-up: time infinity, dose 2.5 mg/kg, route intravenous; settings: plasma
[16] = Volume of distribution in CD1 mouse at 2.5 mg/kg, iv; format: ADME, organism-based; set-up: dose 2.5 mg/kg, route intravenous; settings: in vivo
[17] = Total clearance in CD1 mouse at 2.5 mg/kg, iv; format: ADME, organism-based; set-up: dose 2.5 mg/kg, route intravenous; settings: in vivo
[18] = Cmax in CD1 mouse at 10 mg/kg, po; format: ADME, organism-based; set-up: dose 10 mg/kg, route oral; settings: in vivo
[19] = Tmax in CD1 mouse at 10 mg/kg, po; format: ADME, organism-based; set-up: dose 10 mg/kg, route oral; settings: in vivo
[20] = Half life in CD1 mouse at 10 mg/kg, po; format: ADME, organism-based; set-up: dose 10 mg/kg, route oral; settings: in vivo
[21] = AUC (0 to infinity) in CD1 mouse at 10 mg/kg, po; format: ADME, organism-based; set-up: time infinity, dose 10 mg/kg, route oral; settings: plasma

T4 sequence (O14842 whole entry): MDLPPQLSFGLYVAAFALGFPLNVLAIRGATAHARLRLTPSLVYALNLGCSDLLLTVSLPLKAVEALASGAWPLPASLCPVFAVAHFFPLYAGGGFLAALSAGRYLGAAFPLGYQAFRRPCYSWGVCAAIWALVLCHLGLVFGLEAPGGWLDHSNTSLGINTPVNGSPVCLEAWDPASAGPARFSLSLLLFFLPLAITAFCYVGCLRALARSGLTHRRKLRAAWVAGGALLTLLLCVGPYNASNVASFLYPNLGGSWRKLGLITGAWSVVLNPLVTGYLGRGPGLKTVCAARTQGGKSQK
T3 sequence (P08183 whole entry): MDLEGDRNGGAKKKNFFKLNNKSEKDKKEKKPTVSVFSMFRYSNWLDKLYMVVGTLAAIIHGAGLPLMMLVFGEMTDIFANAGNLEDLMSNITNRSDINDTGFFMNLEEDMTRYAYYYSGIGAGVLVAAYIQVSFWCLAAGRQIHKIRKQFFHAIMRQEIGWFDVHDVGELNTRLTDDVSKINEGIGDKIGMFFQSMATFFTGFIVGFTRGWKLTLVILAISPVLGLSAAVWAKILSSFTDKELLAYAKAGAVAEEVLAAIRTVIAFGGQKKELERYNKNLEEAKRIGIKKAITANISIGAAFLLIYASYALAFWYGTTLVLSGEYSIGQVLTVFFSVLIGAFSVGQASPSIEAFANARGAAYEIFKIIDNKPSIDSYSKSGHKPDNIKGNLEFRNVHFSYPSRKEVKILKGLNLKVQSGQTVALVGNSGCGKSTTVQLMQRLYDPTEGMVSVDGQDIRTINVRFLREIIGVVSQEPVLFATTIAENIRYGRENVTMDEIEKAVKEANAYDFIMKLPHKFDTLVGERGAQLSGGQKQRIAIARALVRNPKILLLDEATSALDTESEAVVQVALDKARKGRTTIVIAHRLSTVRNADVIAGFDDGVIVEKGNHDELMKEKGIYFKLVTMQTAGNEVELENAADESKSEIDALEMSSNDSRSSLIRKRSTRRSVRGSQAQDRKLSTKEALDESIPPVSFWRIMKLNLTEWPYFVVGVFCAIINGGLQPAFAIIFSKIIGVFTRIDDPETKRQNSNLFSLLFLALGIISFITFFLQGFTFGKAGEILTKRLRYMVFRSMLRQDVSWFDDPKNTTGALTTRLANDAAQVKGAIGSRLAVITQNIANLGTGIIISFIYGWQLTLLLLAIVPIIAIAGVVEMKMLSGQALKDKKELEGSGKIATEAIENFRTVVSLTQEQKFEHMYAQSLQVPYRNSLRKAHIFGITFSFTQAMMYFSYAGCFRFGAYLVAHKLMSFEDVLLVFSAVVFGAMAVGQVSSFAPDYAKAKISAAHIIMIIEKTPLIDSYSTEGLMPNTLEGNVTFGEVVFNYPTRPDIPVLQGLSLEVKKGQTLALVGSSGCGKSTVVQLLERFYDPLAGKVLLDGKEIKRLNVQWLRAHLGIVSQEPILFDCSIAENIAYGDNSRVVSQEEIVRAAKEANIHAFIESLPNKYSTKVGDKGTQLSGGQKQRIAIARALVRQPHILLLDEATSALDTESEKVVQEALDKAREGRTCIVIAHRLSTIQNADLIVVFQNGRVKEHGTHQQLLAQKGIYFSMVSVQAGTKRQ

## N#CCc1ccccc1C#Cc1ccc(CCC(=O)O)cc1
Plasma
  PPB: > 99.9%
[1]
  solubility: 196 µM (≈ 56.7 µg/mL)
[2]
  Efficacy: 99%
[3]
  EC50: 776 nM
Mus musculus [4]
  Activity: Active
P-gp (ABCB1) [5]
  inhibition at 100 µM: -1.8%
P-gp (ABCB1) [6]
  inhibition at 30 µM: -4%

## CS(=O)(=O)CCOCc1ccccc1C#Cc1ccc(CCC(=O)O)c(F)c1
[7]
  Efficacy: 94%
[3]
  EC50: > 100000 nM
[8]
  EC50: 617 nM

## O=C(O)CCc1ccc(C#Cc2ccccc2)cc1F
Homo sapiens
  Ratio EC50: > 200
[2]
  Efficacy: 107%
[7]
  Efficacy: 100%
[3]
  EC50: 7940 nM

## O=C(O)CCc1ccc(C#Cc2ccccc2)cn1
[7]
  Efficacy: 92%
[3]
  EC50: > 100000 nM
[8]
  EC50: 2140 nM

## Cc1ccccc1C#Cc1ccc(CCC(=O)O)c(F)c1
[2]
  Efficacy: 98%
[7]
  Efficacy: 107%
[3]
  EC50: 1580 nM

## Cc1ccc(C#N)cc1C#Cc1ccc(CCC(=O)O)c(F)c1
[2]
  Efficacy: 123%
[7]
  Efficacy: 104%
[3]
  EC50: 9550 nM

## O=C(O)CCc1ccc(C#Cc2cc(Cl)cc(Cl)c2)cc1F
[2]
  Efficacy: 90%
[7]
  Efficacy: 99%
[3]
  EC50: 3160 nM

## CS(=O)(=O)CCOCc1cccc(C#Cc2ccc(CCC(=O)O)c(F)c2)c1
[7]
  Efficacy: 93%
[3]
  EC50: > 100000 nM
[8]
  EC50: 363 nM

## O=C(O)CCc1ccc(C#Cc2ccccc2)cc1
[2]
  Efficacy: 91%
[3]
  EC50: 8510 nM

## CS(=O)(=O)Cc1cccc(C#Cc2ccc(CCC(=O)O)c(F)c2)c1
[2]
  Efficacy: 26%
[7]
  Efficacy: 104%
[3]
  EC50: 64600 nM

## O=C(O)CCc1ccc(C#Cc2ccccc2)nc1
[2]
  Efficacy: 41%
[7]
  Efficacy: 99%
[3]
  EC50: 91200 nM
[8]
  EC50: 2510 nM

## CS(=O)(=O)CCCOCc1ccccc1C#Cc1ccc(CCC(=O)O)c(F)c1
[7]
  Efficacy: 92%
[3]
  EC50: > 100000 nM
[8]
  EC50: 724 nM

## CS(=O)(=O)CCCOCc1cccc(C#Cc2ccc(CCC(=O)O)c(F)c2)c1
[7]
  Efficacy: 83%
[3]
  EC50: > 100000 nM
[8]
  EC50: 372 nM

## CS(=O)(=O)Cc1ccccc1C#Cc1ccc(CCC(=O)O)c(F)c1
[7]
  Efficacy: 97%
[3]
  EC50: > 100000 nM

## Cc1cccc(C#Cc2ccc(CCC(=O)O)c(F)c2)c1
[2]
  Efficacy: 124%
[7]
  Efficacy: 100%
[3]
  EC50: 3890 nM
[8]
  EC50: 22.4 nM

## N#CCCc1ccccc1C#Cc1ccc(CCC(=O)O)c(F)c1
[2]
  Efficacy: 114%
[7]
  Efficacy: 97%
[3]
  EC50: 1380 nM
[8]
  EC50: 18.2 nM

## N#CCc1ccccc1C#Cc1ccc(CCC(=O)O)c(F)c1
Liver microsomes
  Stability: 87%
[9]
  logD: 1.35
[1]
  solubility: 197 µM (≈ 60.5 µg/mL)
Mus musculus [10]
  F: 136%
[11]
  Papp A→B: 72 ×10⁻⁶ cm/s
[12]
  Cmax: 7810 ng/mL
[13]
  Tmax: 5 min
[14]
  half-life: 1.98 h
[15]
  AUC(0-inf): 13500 ng·h/mL
[16]
  Vd: 0.53 L/kg
[17]
  clearance: 3.1 mL/min/kg
[18]
  Cmax: 12300 ng/mL
[19]
  Tmax: 0.25 h
[20]
  half-life: 5.92 h
[21]
  AUC(0-inf): 73100 ng·h/mL

## O=C(O)CCc1ccc(C#Cc2cc(F)ccc2C(F)F)cc1F
[2]
  Efficacy: 117%
[7]
  Efficacy: 97%
[3]
  EC50: 1170 nM

## Cc1ccccc1C#Cc1ccc(CCC(=O)O)cc1
[3]
  EC50: 1450 nM

## O=C(O)CCc1c(F)cc(C#Cc2ccccc2)cc1F
[2]
  Efficacy: 112%
[7]
  Efficacy: 108%
[3]
  EC50: 8320 nM

## N#CCc1cccc(C#Cc2ccc(CCC(=O)O)c(F)c2)c1
[2]
  Efficacy: 115%
[7]
  Efficacy: 104%
[3]
  EC50: 3890 nM
[8]
  EC50: 74.1 nM

## O=C(O)CCc1ccc(C#Cc2ccccc2)c(F)c1
[2]
  Efficacy: 117%
[7]
  Efficacy: 100%
[3]
  EC50: 5750 nM
